Assay [1] deals with NUGC3 p53 Y220C. Kind of assay: Cell Proliferation Assay (CellTiter-Glo, CTG), NUGC3 p53 Y220C. Type of assay: cell-based. The note with it: Homo sapiens, NUGC-3, 120 h, 5 days, CellTiter-Glo. In short, it runs like this:
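Tet-One inducible p53 Y220C or R273H constructs were stably introduced into NCI-H1299 by lentiviral transduction; NUGC3 was used as is. Cells (250-500 per well) were exposed to compound for 5 days, then CellTiter-Glo was added for 10 min at room temperature and IC50 was calculated from luminescence.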
For orientation: Cellular ATP, detected with luciferase, serves as a proxy for viable cell number.

For assay [2], the target named is T1, p53 Y220C mutant protein (amino acid residues 94-293) (Homo sapiens, UniProt P04637, Y220C).
T1 construct: p53 Y220C mutant protein (amino acid residues 94-293)
T1 sequence (P04637 94-293, stated change not applied): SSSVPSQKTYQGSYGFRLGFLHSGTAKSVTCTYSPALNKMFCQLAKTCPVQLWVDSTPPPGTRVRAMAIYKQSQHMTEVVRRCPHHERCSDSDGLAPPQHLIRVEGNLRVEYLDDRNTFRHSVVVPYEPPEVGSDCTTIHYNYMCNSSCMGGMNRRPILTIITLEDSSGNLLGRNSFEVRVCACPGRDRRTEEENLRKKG
Briefly: Surface Plasmon Resonance (SPR) assay, Kd_kinetic. Type of assay: binding. The following applies: SPR, p53 Y220C, read-out: SPR P53 Y220C KD kinetic. The method, boiled down:
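Surface plasmon resonance is run at 16 or 20 °C in 50 mM Tris pH 7.5 containing 100 mM NaCl, 1 mM DTT, 0.01% Brij35, 0.05% Tween-20 and 1% DMSO. Association and dissociation data are fitted to a 1:1 model.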

Assay [3] relates to H1299 p53 R273H. Briefly: Cell Proliferation Assay (CellTiter-Glo, CTG), H1299 p53 R273H (NClH1299-inducible p53 R273H). In kind it is cell-based. The note with it: Homo sapiens, NCI-H1299, 120 h, 5 days, CellTiter-Glo. The method, boiled down:
(§1)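 Cells seeded at 250-500 per well and exposed to compound for 5 days. Viability read by CellTiter-Glo luminescence after 10 min at room temperature; IC50 calculated. H1299 lines carry Tet-One inducible p53 mutant constructs introduced by lentiviral transduction.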

In assay [4] the target is p53 Y220C (Homo sapiens, UniProt P04637, Y220C). Kind of assay: Luciferase Reporter Assay (Luc), p53 response element, NClH1299 cells with inducible p53 Y220C. In kind it is cell-based. The following applies: luciferase reporter, NClH1299 inducible p53 Y220C, 6 hour; for AC50: read-out: Luc P53 Y220C AC50. The method, boiled down: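 Steps: seed 5,000 cells/well; induce mutant p53 with 0.5 ug/mL doxycycline for 24 h; treat with compound 6 h; add equal volume One-Glo, shake 5 min at room temperature; measure luciferase immediately.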

Assay [5] deals with H1299 p53 Y220C. Kind of assay: Cell Proliferation Assay (CellTiter-Glo, CTG), H1299 p53 Y220C (NClH1299-inducible p53 Y220C). In kind it is cell-based. The note with it: Homo sapiens, NCI-H1299, 120 h, 5 days, CellTiter-Glo. In short, it runs like this: as §1
Where [6] appears, read: NClH1299-inducible p53 R273H cells.
Setting [7] is: NClH1299-inducible p53 Y220C cells.

Like-named read-outs stand apart in the source and are kept apart here.

`CN1CC[C@@H](Nc2cccn3c(SC(F)(F)F)c(C#CCNc4ccc(P(C)(C)=O)nn4)cc23)[C@@H](F)C1` [Example 429, 2-(3-{[6-(dimethylphosphoryl)pyridazin-3-yl]amino}prop-1-yn-1-yl)-N-[(3S,4R)-3-fluoro-1-methylpiperidin-4-yl]-3-[(trifluoromethyl)sulfanyl]indolizin-8-amine]: the results for the IC50 in assay [1] (NUGC3 cells), in assay [3] (setting [6]) and in assay [5] (setting [7]) were below 750 nM, at least 10000 nM and below 750 nM, respectively. Further, the Kd in assay [2] was below 10 nM. The half-maximal activity concentration (AC50) in assay [4] (AC50) is below 750 nM. In addition, in assay [4] (Emax), the Emax fell in the range of 80 to 90%.
Consider `COc1cc(P(C)(C)=O)ccc1NCC#Cc1cn2c(N[C@@H]3CCN(C)C[C@@H]3F)cccc2c1SC(F)(F)F` [Example 378], for which the IC50 in assay [1] (NUGC3 cells) is below 750 nM; in assay [3] (setting [6]), at least 10000 nM; in assay [5] (setting [7]), below 750 nM. Also, the equilibrium dissociation constant (Kd) in assay [2] was below 10 nM. Further, in assay [4] (AC50), the half-maximal activity concentration (AC50) is below 750 nM. In addition, the Emax in assay [4] (Emax) was 80 to 90%.
On to `CNC(=O)c1cnc(OC)c(NCC#Cc2nc3c(N[C@@H]4CNC[C@@H]4F)cccn3c2SC(F)(F)F)c1` [Example 305], for which the IC50 was below 750 nM in assay [1] (NUGC3 cells), at least 10000 nM in assay [3] (setting [6]) and below 750 nM in assay [5] (setting [7]). Also, in assay [2], the Kd was below 10 nM. Moreover, the AC50 in assay [4] (AC50) is below 750 nM. The compound further returned an Emax in assay [4] (Emax) of 80 to 90%.
Take `CN1CC[C@@H](Nc2cccn3c(SC(F)(F)F)c(C#CCNc4ccc(P(C)(C)=O)cc4)nc23)[C@@H](F)C1` [Example 315]: the 50% inhibitory concentration (IC50) was below 750 nM in assay [1] (NUGC3 cells), at least 10000 nM in assay [3] (setting [6]) and below 750 nM in assay [5] (setting [7]). In addition, the equilibrium dissociation constant (Kd) in assay [2] is below 10 nM. Besides, the AC50 in assay [4] (AC50) was 750 to 1500 nM. This compound also gave an Emax in assay [4] (Emax) of 80 to 90%.
In the case of `CNC(=O)c1ccc(NCC#Cc2cc3c(N[C@@H]4CCN(C)C[C@@H]4F)cccn3c2SC(F)(F)F)c(OC2COC2)c1` [Example 405], the IC50 in assay [1] (NUGC3 cells) is below 750 nM; in assay [3] (setting [6]), at least 10000 nM; in assay [5] (setting [7]), below 750 nM. In addition, the Kd in assay [2] is below 10 nM. The AC50 in assay [4] (AC50) is below 750 nM. Besides, in assay [4] (Emax), the Emax is above 90%.
`CNC(=O)c1ccc(N[C@@H](C)C#Cc2nc3c(N[C@@H]4CCN(C)C[C@@H]4F)cccn3c2SC(F)(F)F)c(OC)c1` [Example 134]: the IC50 in assay [1] (NUGC3 p53 Y220C) was above 3000 nM; in assay [3] (H1299 p53 R273H) it was 5000 to 8000 nM; in assay [5] (H1299 p53 Y220C), above 3000 nM. Moreover, the dissociation constant Kd in assay [2] (kinetic KD) was 10 to 100 nM. Moreover, the Emax in assay [4] (10 uM tool compound as positive control) lay within 70 to 80%. In addition, in assay [4], the AC50 was above 3000 nM.
As for `COc1cc2c(cc1NCC#Cc1cc3c(N[C@@H]4CCN(C)C[C@@H]4F)cccn3c1SC(F)(F)F)CNC2=O` [Example 399], the IC50 was below 750 nM in assay [1] (NUGC3 cells), 5000 to 8000 nM in assay [3] (setting [6]) and below 750 nM in assay [5] (setting [7]). Further, in assay [2], the dissociation constant Kd was below 10 nM. The AC50 in assay [4] (AC50) is below 750 nM. Moreover, in assay [4] (Emax), the Emax was above 90%.
As for `C[C@H](O)[C@H](C)NC(=O)c1ccc(NCC#Cc2cc3c(N[C@@H]4CCN(C)C[C@@H]4F)cccn3c2SC(F)(F)F)cc1` [Example 383], the 50% inhibitory concentration (IC50) in assay [1] (NUGC3 cells) was below 750 nM; in assay [3] (setting [6]) it was 8000 to 10000 nM; in assay [5] (setting [7]) it was below 750 nM. In addition, in assay [2], the Kd is below 10 nM. In addition, the AC50 in assay [4] (AC50) was below 750 nM. The same compound gave an Emax in assay [4] (Emax) above 90%.
Take `CNC(=O)c1cnc(C)c(NCC#Cc2nc3c(N[C@@H]4CCN(C)C[C@@H]4F)cccn3c2SC(F)(F)F)c1` [Example 274]: the IC50 is below 750 nM in assay [1] (NUGC3 cells), at least 10000 nM in assay [3] (setting [6]) and below 750 nM in assay [5] (setting [7]). Moreover, the Kd in assay [2] is below 10 nM. Besides, the half-maximal activity concentration (AC50) in assay [4] (AC50) is below 750 nM. Besides, the Emax in assay [4] (Emax) was above 90%.

What is called IC50 is the concentration needed to halve the response being measured. A lower IC50 goes with greater potency in that assay. Broadly, the Kd is the constant that tells how readily two partners part at equilibrium. One may read the AC50 as the midpoint of the concentration-response curve, whichever way the signal moves. A word on the Emax: it is the maximal effect, on the per cent scale that the assay sets.

(Values after patent US20260374766A1, “METHODS FOR TREATING CANCER” (Antares Therapeutics, Inc., priority 2022, published 2026).)
